Results taken from article PMC4593073, “Non-invasive imaging and cellular tracking of pulmonary emboli by near-infrared fluorescence and positron-emission tomography” (Nature Communications, 2015).
Where no end group is shown, it is not given here.

How the values were obtained:
[1] = system: Cells grown on plastic; experiment: Uptake of the cell viability dye DRAQ7; assay type: cell-based; conditions: 50 μM, 2 hrs
Method: Discrimination between on and off states in PAR1–RIP observed in vitro translated in vivo. To gauge the interaction of RIP probes with cells, we measured their toxicity at ∼6- to 600-fold excess of the intended use in vivo. […] Inclusion of the highly specific thrombin inhibitor hirudin blocked these protease-dependent effects and confirmed the key role for thrombin in this process. Cells grown on plastic were incubated with […] pro-peptide to confirm that uptake of the fluorescent dye DRAQ7 only occurred in the protease-treated form (Supplementary Fig. 3a) not the pro-peptide alone (Supplementary Fig. 3b). Concentrations required to mediate toxicity in cell culture exceed those used in animal studies described below by several orders of magnitude, but provide a useful readout nonetheless.
Supplementary Figure 3 – The cellular effects of the active PAR1-RIP peptide. High-doses (50 μM) of the cleaved PAR1-RIP lead to
concentrations for extended periods of time (2 hrs). Scale bars, 20 µm.
(1 picture or pasted object on this page, not shown here)

[2] = Acute toxicology: serum panel of hepatic and renal functions; assay type: in vivo, C57BL/6J mice; set-up: Phosphorus / Calcium: unit not given here; conditions: mean±s.e.m., n=3
Method: To address the safety profile of this novel functional imaging platform, PAR1–RIP probe was administered in C57BL/6J mice at a concentration threefold higher than used for the imaging studies (150 picomoles, 100 μl). […] The serum was pipetted into clean tubes and frozen before shipment to IDEXX BioResearch (Sacramento, CA) for a comprehensive panel of hepatic and renal functions. All tests were performed using an Olympus 5400 analyser. Measurements of the following enzymes and electrolytes were provided: alkaline phosphatase, alanine aminotransferase, aspartate aminotransferase, creatine phosphokinase, total protein, direct bilirubin, indirect bilirubin, total bilirubin, globulin, blood urea nitrogen, creatinine, cholesterol, glucose, calcium, phosphorus, bicarbonate, chloride, potassium, sodium and haemolysis index.
Toxicology results are presented as mean±s.e.m. Data were analysed using GraphPad Prism (GraphPad Software Inc., San Diego, CA) and statistical differences among experimental groups of animals were detected using one-way analysis of variance (ANOVA) followed by Dunnett’s post-test; P<0.05 was considered statistically significant.

[3] = biological target: T1, thrombin (factor IIa) (Homo sapiens, UniProt P00734); experiment: Peptide kinetics: proteolysis of the probe followed by HPLC/mass spectrometry; assay type: biochemical; conditions: HPLC, 37 °C, PBS pH 7.4, mean±s.d., n=3
T1 construct: Human clotting factors IIa (thrombin), VIIa, IXa, Xa, XIa, plasmin and aPC; purchased Haematologic Technologies
From the text: Comparison of the rates of protease-mediated hydrolysis of a tripeptide chromogenic substrate (P3–P1), quenched oligopeptide substrate (P4–P4′) and our PAR1–RIP probe (P4–P14′) emphasize the value of a larger surface area of interaction between enzyme and substrate in RIP probes. When substrates have limited potential contacts with the protease, and the majority of them are shared with homologous enzymes, their turnover is non-specific. For example, the chromogenic substrate d–Phe–Pro–Arg–paranitroanilide is not only an excellent substrate for thrombin but also for many other proteases (Fig. 3f). As substrate length increases to include four additional residues on the prime side of the scissile bond, specificity increases 10-fold (Fig. 3g). Inclusion of the 10 amino acids responsible for exosite binding to thrombin further increases the relative specificity eightfold and reduces the KM to a physiologically relevant value of 0.2±0.1 μM (mean±s.d., n=3; Fig. 3h). […]
Human clotting factors IIa (thrombin), VIIa, IXa, Xa, XIa, plasmin and aPC were obtained from Haematologic Technologies (Vermont, USA). Kinetics studies of probe digestion were measured by HPLC over the course of 1 h at 37 °C, using 10 nM of enzyme and 1 μM of PAR1–RIP in PBS (pH 7.4). […]

[4] = mouse serum 6 hs after 150 picomoles
[5] = mouse serum 6 hs after 150 picomoles, marked *
[6] = mouse serum 48 hs after 150 picomoles
[7] = mouse serum 72hs after 150 picomoles
[8] = mouse serum 72hs after 150 picomoles, marked *

In the case of “FVQWFSKFLGKLLPR [thrombin-treated PAR1–RIP]”, the “uptake of cell viability dye DRAQ7” value [1] is reported as “uptake of cell viability dyes including DRAQ7”.

In the case of “FVQWFSKFLGKLLPRSFLLQDPNDQYEPF [PAR1–RIP]”, the “Alanine Aminotransferase (ALT)” value [2, 4] is reported as 29.7±1.4 U/L, the Albumin [2, 4] is reported as 2.7 ± 0.1 g/dL and the “Aspartate Aminotransferase (AST)” value [2, 4] is reported as 61.7 ± 4.0 U/L. For the same sequence, the “Blood Urea Nitrogen (BUN)” value [2, 4] was 27.0 ± 2.6 mg/dL, the Calcium [2, 4] was 9.1 ± 0.1 and the Chloride [2, 4] was 116.0 ± 0.6 mEq/ L. The Cholesterol [2, 4] was 79 ± 0.6 mg/dL, the Creatinine [2, 4] was 0.2 ± 0.0 mg/dL and the “Creatinine Phosphokinase (CPK)” value [2, 4] was 144.7 ± 27.4 U/L. The “Direct Bilirubin” value [2, 4] was 0.0 ± 0.0 mg/dL, the Globulin [2, 4] was 1.9 ± 0.0 g/dL and the Glucose [2, 4] was 238.7 ± 2.9 mg/dL. The “Indirect Bilirubin” value [2, 4] was 0.1 ± 0.0 mg/dL, the Phosphorus [2, 4] was 6.9 ± 0.2 and the Potassium [2, 4] was 4.7 ± 0.1 mEq/ L. For the same sequence, the Sodium [2, 4] was 152.3 ± 0.3 mEq/ L, the “Total Bilirubin” value [2, 4] was 0.1 ± 0.0 mg/dL and the “Total Protein” value [2, 4] was 4.6 ± 0.1 g/dL. The Alkaline phosphatase [2, 5] was 149.7 ± 12.8 U/L, the Bicarbonate [2, 5] was 13.3 ± 0.3 mEq/ L and the “Alanine Aminotransferase (ALT)” value [2, 6] was 26.3 ± 0.3 U/L. The Albumin [2, 6] was 2.6 ± 0.1 g/dL, the Alkaline phosphatase [2, 6] was 120.7 ± 6.4 U/L and the “Aspartate Aminotransferase (AST)” value [2, 6] was 57.6 ± 6.3 U/L. The Bicarbonate [2, 6] was 15.0 ± 0.0 mEq/ L, the “Blood Urea Nitrogen (BUN)” value [2, 6] was 23.7 ± 1.4 mg/dL and the Calcium [2, 6] was 9.0 ± 0.1. For the same sequence, the Chloride [2, 6] was 110.3 ± 0.8 mEq/ L, the Creatinine [2, 6] was 0.2 ± 0.0 mg/dL and the “Creatinine Phosphokinase (CPK)” value [2, 6] was 150.3 ± 38.0 U/L. The “Direct Bilirubin” value [2, 6] was 0.1 ± 0.0 mg/dL, the Globulin [2, 6] was 2.0 ± 0.1 g/dL and the Glucose [2, 6] was 203.0 ± 3.5 mg/dL. For the same sequence, the “Indirect Bilirubin” value [2, 6] was 0.1 ± 0.0 mg/dL, the Phosphorus [2, 6] was 6.8 ± 0.2 and the Potassium [2, 6] was 4.6 ± 0.1 mEq/ L. The Sodium [2, 6] was 153.3 ± 0.9 mEq/ L, the “Total Bilirubin” value [2, 6] was 0.12 ± 0.0 mg/dL and the “Total Protein” value [2, 6] was 4.6 ± 0.1 g/dL. For the same sequence, the Cholesterol ([2]; mouse serum 48 hs after 150 picomoles, marked *) was 84.3 ± 3.5 mg/dL, the “Alanine Aminotransferase (ALT)” value [2, 7] was 20.0±1.0 U/L and the Albumin [2, 7] was 2.6 ± 0.0 g/dL. The Alkaline phosphatase [2, 7] was 107.0 ± 7.8 U/L, the “Aspartate Aminotransferase (AST)” value [2, 7] was 53.7 ± 12.2 U/L and the “Blood Urea Nitrogen (BUN)” value [2, 7] was 26.7 ± 1.8 mg/dL. For the same sequence, the Calcium [2, 7] was 9.1 ± 0.2, the Chloride [2, 7] was 110.3 ± 0.3 mEq/ L and the Cholesterol [2, 7] was 82.7 ± 1.7 mg/dL. For the same sequence, the Creatinine [2, 7] was 0.2 ± 0.0 mg/dL, the “Creatinine Phosphokinase (CPK)” value [2, 7] was 156.3 ± 67.7 U/L and the “Direct Bilirubin” value [2, 7] was 0.0 ± 0.0 mg/dL. For the same sequence, the Globulin [2, 7] was 1.9 ± 0.1 g/dL, the Glucose [2, 7] was 268.0 ± 20.1 mg/dL and the “Indirect Bilirubin” value [2, 7] was 0.1 ± 0.0 mg/dL. For the same sequence, the Phosphorus [2, 7] was 7.4 ± 0.2, the Potassium [2, 7] was 4.9 ± 0.2 mEq/ L and the “Total Bilirubin” value [2, 7] was 0.1 ± 0.0 mg/dL. The “Total Protein” value [2, 7] was 4.6 ± 0.1 g/dL, the Bicarbonate [2, 8] was 18.3 ± 0.3 mEq/ L and the Sodium [2, 8] was 150 ± 0.0 mEq/ L. The Km [3] was 0.2 ± 0.1 µM.
